Experimental data as given in US5811439A, “Thiazolidinedione derivatives, method for preparing the derivatives and pharmaceutical compositions containing same” (Senga Pharmaceutical Laboratory Inc., priority 1995, dated 1998).

Test system: 3T3-L1 cells
Experiment: Glucose-uptake test (2-DOG uptake) in 3T3-L1 cells
Assay type: cell-based
Details: cpm divided by amount of proteins; for activity at 50 µg/mL: Mus musculus, 3T3-L1, 24 h, 50 μg/ml, read-out: 2-DOG Uptake (%) at a concentration of 50 μg/ml; for 2-DOG Uptake (%) at a concentration of 50 μg/ml: 24 hours
Protocol: Glucose-uptake tests as a means for screening compounds for the effect of reducing the blood sugar level were carried out according to the following procedures. 1) Cell: The following cells were used. 3T3-L1 (purchased from Dainippon Pharmaceutical Co. Ltd.) 2) Reagents: The following reagents were used. DMEM (GIBCO); FBS (GIBCO); […] DMSO: dimethylsulfoxide (Wako Pure Chemical Co., Ltd.); ACS2 (Amersham); urea (Wako Pure Chemical Co., Ltd.); protein-determining kit (Bio Rad Code No.). 3) Instrument: The following instrument was used in the test. 24-well plate (Falcon) 3T3-L1 cells were dispersed in a 10% FBS-containing DME medium in a cell concentration of 10000 cells/ml, the resulting cell suspension was dispensed into a 24-well plate in an amount of 1 ml per well and the cells were cultivated in a 5% CO2 -incubator at 37° C. for 5 days. After soaking up the medium in the wells, the plate was washed once with PBS in an amount of 2 ml/well. […] The cells were cultivated in a sample compound-containing medium at 37° C. for 24 hours in a 5%-CO2 -incubator. After the cultivation, the medium was soaked up and the plate was washed three times with 2 ml/well each of PBS. […] After washing with 2 ml/well of PBS, the PBS was sufficiently soaked up. […] The lysate was also inspected for the amount of proteins using 0.2 ml out of the rest of the lysate, according to the microassay method using a protein-determining kit.

Structure (SMILES)	activity at 50 µg/mL	2-DOG Uptake (%) at a concentration of 50 μg/ml
Cc1oc(-c2ccccc2)nc1Cn1ccc2c(C=C3SC(=O)NC3=O)cccc21 [Example 31, 5-{1-[(5-methyl-2-phenyloxazol-4-yl)methyl]indol-4-yl}methylene-2,4-thiazolidine-dione]	208%	–
COC(=O)c1ccc(Cn2ccc3c(C=C4SC(=O)NC4=O)cccc32)cc1 [Example 8, 5-[1-(4-methoxycarbonylbenzyl)indol-4-yl]methylene-2,4-thiazolidinedione]	172%	–
COc1cccc(Cn2ccc3c(CC4SC(=O)NC4=O)cccc32)c1 (stereo not drawn) [Example 89, 5-[1-(3-methoxybenzyl)indol-4-yl]methyl-2,4-thiazolidinedione]	185%	–
O=C1NC(=O)C(Cc2cccc3c2ccn3CC(=O)c2ccccc2)S1 (stereo not drawn) [Example 187, 5-(1-phenacylindol-4-yl)methyl-2,4-thiazolidinedione]	174%	–
O=C1NC(=O)C(Cc2cccc3c2ccn3Cc2cccc(F)c2)S1 (stereo not drawn) [Example 50, 5-[1-(3-fluorobenzyl)indol-4-yl]-methyl-2,4-thiazolidinedione]	201%	–
O=C1NC(=O)C(Cc2cn(Cc3ccc(O)cc3)c3ccccc23)S1 (stereo not drawn) [Example 317, 5-[1-(4-hydroxybenzyl)indol-3-yl]methyl-2,4-thiazolidinedione]	169%	–
COc1ccc(Cn2ccc3c(CC4SC(=O)NC4=O)cccc32)cc1OC (stereo not drawn) [Example 92, 5-[1-(3,4-dimethoxybenzyl)indol-4-yl]methyl-2,4-thiazolidinedione]	190%	–
O=C1NC(=O)C(Cc2cccc3c2ccn3C(=O)Cc2ccccc2)S1 (stereo not drawn) [Example 13, 5-(1-phenylacetylindol-4-yl)methyl-2,4-thiazolidinedione]	150%	–
CC(c1ccccc1)n1ccc2c(CC3SC(=O)NC3=O)cccc21 (stereo not drawn) [Example 174, 5-[1-(α-methylbenzyl)indol-4-yl]methyl-2,4-thiazolidinedione]	252%	–
O=C1NC(=O)C(Cc2cccc3c2ccn3Cc2ccccn2)S1 (stereo not drawn) [Example 133, 5-[1-(2-picolyl)indol-4-yl]methyl-2,4-thiazolidinedione]	–	240%
Nc1ccc(Cn2cc(CC3SC(=O)NC3=O)c3ccccc32)cc1 (stereo not drawn) [Example 256, 5-[1-(4-aminobenzyl)indol-3-yl]methyl-2,4-thiazolidinedione]	172%	–
O=C1NC(=O)C(Cc2cccc3c2ccn3Cc2cc(F)ccc2F)S1 (stereo not drawn) [Example 62, 5-[1-(2,5-difluorobenzyl)indol-4-yl]-methyl-2,4-thiazolidinedione]	192%	–
O=C1NC(=O)C(Cc2cccc3c2ccn3Cc2cc(C(F)(F)F)cc(C(F)(F)F)c2)S1 (stereo not drawn) [Example 214, 5-{1-[3,5-bis(trifluoromethyl)benzyl]indol-4-yl}methyl-2,4-thiazolidinedione]	185%	–
N#Cc1ccc(Cn2ccc3c(CC4SC(=O)NC4=O)cccc32)cc1 (stereo not drawn) [Example 104, 5-[1-(4-cyanobenzyl)indol-4-yl]methyl-2,4-thiazolidinedione]	290%	–
O=C1NC(=O)C(Cc2cccc3c2ccn3Cc2ccc(C(F)(F)F)cc2)S1 (stereo not drawn) [Example 80, 5-[1-(4-trifluoromethylbenzyl)indol-4-yl]methyl-2,4-thiazolidinedione]	210%	–
N#Cc1cccc(Cn2cc(CC3SC(=O)NC3=O)c3ccccc32)c1 (stereo not drawn) [Example 283, 5-[1-(3-cyanobenzyl)indol-3-yl]methyl-2,4-thiazolidinedione]	232%	–
O=C1NC(=O)C(Cc2cccc3c2ccn3Cc2ccccc2C(F)(F)F)S1 (stereo not drawn) [Example 74, 5-[1-(2-trifluoromethylbenzyl)indol-4-yl]methyl-2,4-thiazolidinedione]	210%	–
CC1(C)[C@H]2CC=C(Cn3ccc4c(CC5SC(=O)NC5=O)cccc43)[C@@H]1C2 (stereo partly drawn) [Example 199, 5-[1-(1S, 5S, 2-pinen-10-yl)indol-4-yl]methyl-2,4-thiazolidinedione]	206%	–
O=C1NC(=O)C(=Cc2cccc3c2ccn3Cc2ccccc2)S1 [Example 2, 5-(1-benzylindol-4-yl)methylene-2,4-thiazolidinedione]	182%	–
COC(=O)c1ccc(Cn2ccc3c(CC4SC(=O)NC4=O)cccc32)cc1 (stereo not drawn) [Example 9, 5-[1-(4-methoxycarbonylbenzyl)indol-4-yl]methyl-2,4-thiazolidinedione]	180%	–
O=C1NC(=O)C(Cc2cn(Cc3cc(F)ccc3F)c3ccccc23)S1 (stereo not drawn) [Example 250, 5-[1-(2,5-difluorobenzyl)indol-3-yl]methyl-2,4-thiazolidinedione]	209%	–

Structure (SMILES)	activity at 50 µg/mL	2-DOG Uptake (%) at a concentration of 50 μg/ml
CCC(CC)Cn1ccc2c(C=C3SC(=O)NC3=O)cccc21 [Example 158, 5-[1-(2-ethylbutyl)indol-4-yl]methylene-2,4-thiazolidinedione]	221%	–
Cc1cccc(Cn2ccc3c(CC4SC(=O)NC4=O)cccc32)c1 (stereo not drawn) [Example 115, 5-[1-(3-methylbenzyl)indol-4-yl]methyl-2,4-thiazolidinedione]	162%	–
O=C1NC(=O)C(Cc2cccc3c2ccn3Cc2ccncc2)S1 (stereo not drawn) [Example 6, 5-[1-(4-picolyl)indol-4-yl]methyl-2,4-thiazolidinedione]	166%	–
O=C1NC(=O)C(Cc2cccc3c2ccn3C2CCCCC2)S1 (stereo not drawn) [Example 180, 5-(1-cyclohexylindol-4-yl)methyl-2,4-thiazolidinedione]	232%	–
O=C1NC(=O)C(Cc2cccc3c2ccn3Cc2cccc(C(F)(F)F)c2)S1 (stereo not drawn) [Example 77, 5-[1-(3-trifluoromethylbenzyl)indol-4-yl]methyl-2,4-thiazolidinedione]	185%	–
Cc1cccc(Cn2cc(CC3SC(=O)NC3=O)c3ccccc32)c1 (stereo not drawn) [Example 281, 5-[1-(3-methylbenzyl)indol-3-yl]methyl-2,4-thiazolidinedione]	244%	–
O=C1NC(=O)C(Cc2cccc3c2ccn3Cc2cccc(F)c2F)S1 (stereo not drawn) [Example 55, 5-[1-(2,3-difluorobenzyl)indol-4-yl]-methyl-2,4-thiazolidinedione]	180%	–
CC#CCn1ccc2c(CC3SC(=O)NC3=O)cccc21 (stereo not drawn) [Example 168, 5-[1-(2-butynyl)indol-4-yl]methyl-2,4-thiazolidinedione]	172%	–
COc1ccccc1Cn1ccc2c(CC3SC(=O)NC3=O)cccc21 (stereo not drawn) [Example 86, 5-[1-(2-methoxybenzyl)indol-4-yl]methyl-2,4-thiazolidinedione]	161%	–
O=C1NC(=O)C(Cc2cn(Cc3ccc(C(F)(F)F)cc3)c3ccccc23)S1 (stereo not drawn) [Example 271, 5-{1-[4-(trifluoromethyl)benzyl]indol-3-yl}methyl-2,4-thiazolidinedione]	165%	–
COc1ccc(OC)c(Cn2ccc3c(CC4SC(=O)NC4=O)cccc32)c1 (stereo not drawn) [Example 98, 5-[1-(2,5-dimethoxybenzyl)indol-4-yl]methyl-2,4-thiazolidinedione]	180%	–
O=C1NC(=O)C(Cc2cc3ccccc3n2Cc2ccccc2)S1 (stereo not drawn) [Example 312, 5-(1-benzylindol-2-yl)methyl-2,4-thiazolidinedione]	164%	–
CC(c1ccccc1)n1ccc2c(C=C3SC(=O)NC3=O)cccc21 (stereo not drawn) [Example 173, 5-[1-(α-methylbenzyl)indol-4-yl]methylene-2,4-thiazolidinedione]	153%	–
O=C1NC(=O)C(Cc2cn(Cc3ccc(Cl)cc3)c3ccccc23)S1 (stereo not drawn) [Example 253, 5-[1-(4-chlorobenzyl)indol-3-yl]methyl-2,4-thiazolidinedione]	203%	–
O=C1NC(=O)C(Cc2cccc3c2ccn3CCc2cccs2)S1 (stereo not drawn) [Example 139, 5-{1-[2-(thien-2-yl)ethyl]indol-4-yl}methyl-2,4-thiazolidinedione]	153%	–
Cc1c(C)c2c(c(C)c1O)CCC(C)(COc1ccc(CC3SC(=O)NC3=O)cc1)O2 (racemic) [CS-045, (±)5-[4(6-hydroxy-2,5,7,8-tetramethylchroman-2-yl-methoxy)benzyl2,4-thazolidinedione, reference compound]	172%	–
O=C1NC(=O)C(Cc2ccc3c(ccn3CCc3ccccc3)c2)S1 (stereo not drawn) [Example 305, 5-(1-phenethylindol-5-yl)methyl-2,4-thiazolidinedione]	215%	–
Cl.O=C1NC(=O)C(Cc2cccc3c2ccn3Cc2ccccn2)S1 (stereo not drawn) [Example 337, 5-[1-(2-picolyl)indol-4-yl]methyl-2,4-thiazolidinedione hydrochloride]	–	181%
O=C1NC(=O)C(Cc2cccc3[nH]ccc23)S1 (stereo not drawn) [Example 150, 5-(indol-4-yl)methyl-2,4-thiazolidinedione]	191%	–
O=C1NC(=O)C(Cc2cn(Cc3cccc(F)c3)c3ccccc23)S1 (stereo not drawn) [Example 273, 5-[1-(3-fluorobenzyl)indol-3-yl]methyl-2,4-thiazolidinedione]	215%	–
O=C1NC(=O)C(Cc2cccc3c2ccn3Cc2ccc(F)c(F)c2)S1 (stereo not drawn) [Example 68, 5-[1-(3,4-difluorobenzyl)indol-4-yl]-methyl-2,4-thiazolidinedione]	202%	–
